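Test compounds were applied to cells in 96-well plates for 48 hours at 5 doses. GI50 = concentration required for 50% inhibition of growth.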 Calls of active or inactive are those of the source. No stated cut-off is given here; in the data, active = GI50 up to about 1.1 µM and inactive = higher.
How the values were obtained:
Experiment in all cases: DTP human tumour cell line panel, 48 h
[1] = tested on: 786-0
[2] = tested on: A498
[3] = tested on: ACHN
[4] = tested on: DU-145
[5] = tested on: IGROV-1
[6] = tested on: K562
[7] = tested on: KM12
[8] = tested on: M14
[9] = tested on: MCF7
[10] = tested on: Malme-3M
[11] = tested on: NCI-H226
[12] = tested on: NCI-H522
[13] = tested on: OVCAR-3
[14] = tested on: OVCAR-4
[15] = tested on: RPMI-8226
[16] = tested on: SNB-19
[17] = tested on: SW-620
[18] = tested on: T47D
[19] = tested on: U-251
[20] = tested on: UACC-62

SMILES: COc1ccc(N(C(=O)OC(C)(C)C)[C@@H]2C(C)=C[C@H]([S@@+]([O-])c3ccc(C)cc3)[C@@H]3C(=O)N(C)C(=O)[C@@H]32)cc1
- GI50 [1]: 18100 nM (inactive)
- GI50 [2]: 10100 nM (inactive)
- GI50 [3]: 20500 nM (inactive)
- GI50 [4]: 30200 nM (inactive)
- GI50 [5]: 10700 nM (inactive)
- GI50 [6]: 30000 nM (inactive)
- GI50 [7]: 11600 nM (inactive)
- GI50 [8]: 32200 nM (inactive)
- GI50 [9]: 15200 nM (inactive)
- GI50 [10]: 18600 nM (inactive)
- GI50 [11]: 16600 nM (inactive)
- GI50 [12]: 4200 nM (inactive)
- GI50 [13]: 27100 nM (inactive)
- GI50 [14]: 16500 nM (inactive)
- GI50 [15]: 14300 nM (inactive)
- GI50 [16]: 17500 nM (inactive)
- GI50 [17]: 20900 nM (inactive)
- GI50 [18]: 33600 nM (inactive)
- GI50 [19]: 14000 nM (inactive)
- GI50 [20]: 18400 nM (inactive)

SMILES: CN(C)CCN(C)c1ccc2c(=O)n(CCN(C)C)c(=O)n3c4ccccc4c(=O)c1c23
- GI50 [1]: 108 nM (active)
- GI50 [2]: 471 nM (active)
- GI50 [3]: 43.6 nM (active)
- GI50 [4]: 128 nM (active)
- GI50 [5]: 426 nM (active)
- GI50 [6]: 140 nM (active)
- GI50 [7]: 1260 nM (inactive)
- GI50 [8]: 986 nM (active)
- GI50 [9]: 345 nM (active)
- GI50 [10]: 1230 nM (inactive)
- GI50 [11]: 290 nM (active)
- GI50 [12]: 259 nM (active)
- GI50 [13]: 1890 nM (inactive)
- GI50 [14]: 364 nM (active)
- GI50 [15]: 179 nM (active)
- GI50 [16]: 518 nM (active)
- GI50 [17]: 119 nM (active)
- GI50 [18]: 1090 nM (active)
- GI50 [19]: 489 nM (active)
- GI50 [20]: 993 nM (active)

SMILES: CCC1(OC(=O)CNC)C(=O)OCc2c1cc1n(c2=O)Cc2cc3ccccc3nc2-1 (stereo not given)
- GI50 [1]: < 10 nM (active)
- GI50 [2]: < 17.9 nM (active)
- GI50 [3]: < 10 nM (active)
- GI50 [4]: < 10 nM (active)
- GI50 [5]: 60.1 nM (active)
- GI50 [6]: 30.3 nM (active)
- GI50 [7]: 68.5 nM (active)
- GI50 [8]: < 10.5 nM (active)
- GI50 [9]: < 10 nM (active)
- GI50 [10]: 54.3 nM (active)
- GI50 [11]: < 10 nM (active)
- GI50 [12]: < 11.6 nM (active)
- GI50 [13]: 71.3 nM (active)
- GI50 [14]: 97.7 nM (active)
- GI50 [15]: < 13.7 nM (active)
- GI50 [16]: < 10 nM (active)
- GI50 [17]: < 10 nM (active)
- GI50 [18]: < 10 nM (active)
- GI50 [19]: < 10 nM (active)
- GI50 [20]: < 10 nM (active)

Reference: ChEMBL document CHEMBL1201862, “PubChem BioAssay data set” (2004)
